Measured values as given in ChEMBL document CHEMBL1143629, “Synthesis and antibacterial activity of 1-(2-fluorovinyl)-7-substituted-4-quinolone-3-carboxylic acid derivatives, conformationally restricted analogues of fleroxacin” (J Med Chem, 2005).
Values after ≈ are worked out from the molar mass of the structure shown.

Key:
Streptococcus pneumoniae = test: In vitro minimum inhibitory concentration against Streptococcus pneumoniae type III; format: functional
Staphylococcus aureus = test: In vitro minimum inhibitory concentration against Staphylococcus aureus Smith; format: functional
DNA gyrase = DNA gyrase (Staphylococcus aureus, UniProt P0A0K8+P20831); test: Inhibitory concentration against DNA gyrase of Staphylococcus aureus; format: protein-complex assay
Chain of DNA gyrase (P0A0K8 whole entry): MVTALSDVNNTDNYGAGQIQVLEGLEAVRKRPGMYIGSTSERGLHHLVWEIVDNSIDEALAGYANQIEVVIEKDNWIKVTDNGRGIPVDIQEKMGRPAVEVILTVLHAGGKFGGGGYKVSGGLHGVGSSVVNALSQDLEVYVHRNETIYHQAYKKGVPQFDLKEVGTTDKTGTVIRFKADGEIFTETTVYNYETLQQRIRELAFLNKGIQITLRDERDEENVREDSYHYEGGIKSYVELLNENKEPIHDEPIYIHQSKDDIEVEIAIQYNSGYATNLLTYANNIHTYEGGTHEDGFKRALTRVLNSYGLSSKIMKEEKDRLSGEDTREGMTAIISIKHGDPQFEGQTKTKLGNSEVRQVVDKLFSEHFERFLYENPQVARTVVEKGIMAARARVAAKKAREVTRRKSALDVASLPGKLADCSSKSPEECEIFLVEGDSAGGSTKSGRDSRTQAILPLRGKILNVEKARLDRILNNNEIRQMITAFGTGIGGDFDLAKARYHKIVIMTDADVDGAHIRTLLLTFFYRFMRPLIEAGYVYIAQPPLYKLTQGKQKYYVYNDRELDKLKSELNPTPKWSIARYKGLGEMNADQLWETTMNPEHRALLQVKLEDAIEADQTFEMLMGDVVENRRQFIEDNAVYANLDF
Chain of DNA gyrase (P20831 whole entry): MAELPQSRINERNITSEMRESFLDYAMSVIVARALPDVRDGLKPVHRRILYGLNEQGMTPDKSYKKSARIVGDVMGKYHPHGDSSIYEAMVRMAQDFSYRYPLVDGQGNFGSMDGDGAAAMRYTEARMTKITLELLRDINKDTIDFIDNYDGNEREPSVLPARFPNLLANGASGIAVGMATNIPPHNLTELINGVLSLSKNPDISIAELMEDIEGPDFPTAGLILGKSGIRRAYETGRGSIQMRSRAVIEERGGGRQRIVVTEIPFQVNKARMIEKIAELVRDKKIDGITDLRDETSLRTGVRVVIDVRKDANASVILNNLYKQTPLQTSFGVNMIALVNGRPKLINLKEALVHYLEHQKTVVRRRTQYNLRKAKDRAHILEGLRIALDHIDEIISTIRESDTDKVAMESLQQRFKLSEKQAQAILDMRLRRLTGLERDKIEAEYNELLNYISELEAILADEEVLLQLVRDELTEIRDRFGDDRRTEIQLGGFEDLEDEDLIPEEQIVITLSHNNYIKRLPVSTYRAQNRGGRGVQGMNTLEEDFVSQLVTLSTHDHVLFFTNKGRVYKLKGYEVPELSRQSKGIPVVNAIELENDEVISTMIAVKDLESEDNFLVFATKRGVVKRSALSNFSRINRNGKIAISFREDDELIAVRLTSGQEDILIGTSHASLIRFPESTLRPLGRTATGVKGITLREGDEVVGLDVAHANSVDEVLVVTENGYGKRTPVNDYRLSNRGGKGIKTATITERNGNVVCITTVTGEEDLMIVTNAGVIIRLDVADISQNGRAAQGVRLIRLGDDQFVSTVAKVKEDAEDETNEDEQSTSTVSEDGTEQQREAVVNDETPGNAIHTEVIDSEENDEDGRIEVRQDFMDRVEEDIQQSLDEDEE

Pseudomonas aeruginosa = test: In vitro minimum inhibitory concentration against Pseudomonas aeruginosa IID1210; format: functional
Escherichia coli = test: In vitro minimum inhibitory concentration against Escherichia coli NIHJ JC-2; format: functional

## CN1CCN(c2c(F)cc3c(=O)c(C(=O)O)cn(CCF)c3c2F)CC1 [FLEROXACIN]
Streptococcus pneumoniae
  MIC: 3.13 µg/mL (≈ 8.47 µM)
Staphylococcus aureus
  MIC: 0.39 µg/mL (≈ 1.06 µM)
DNA gyrase
  IC50: 185 µM
Pseudomonas aeruginosa
  MIC: 1.56 µg/mL (≈ 4.22 µM)
Escherichia coli
  MIC: 0.025 µg/mL (≈ 0.0677 µM)

## NC1CCN(c2cc3c(cc2F)c(=O)c(C(=O)O)cn3/C=C/F)C1 (centres undefined)
Streptococcus pneumoniae
  MIC: 6.25 µg/mL (≈ 18.6 µM)
Staphylococcus aureus
  MIC: 1.56 µg/mL (≈ 4.65 µM)
Pseudomonas aeruginosa
  MIC: 3.13 µg/mL (≈ 9.33 µM)
Escherichia coli
  MIC: 0.2 µg/mL (≈ 0.596 µM)

## COc1c(N2CCC(N)C2)c(F)cc2c(=O)c(C(=O)O)cn(/C=C\F)c12 (centres undefined)
Streptococcus pneumoniae
  MIC: 1.56 µg/mL (≈ 4.27 µM)
Staphylococcus aureus
  MIC: 0.39 µg/mL (≈ 1.07 µM)
Pseudomonas aeruginosa
  MIC: 1.56 µg/mL (≈ 4.27 µM)
Escherichia coli
  MIC: 0.0125 µg/mL (≈ 0.0342 µM)

## O=C(O)c1cn(C2CC2)c2cc(N3CCNCC3)c(F)cc2c1=O [CIPROFLOXACIN]
Streptococcus pneumoniae
  MIC: 0.78 µg/mL (≈ 2.35 µM)
Staphylococcus aureus
  MIC: 0.2 µg/mL (≈ 0.604 µM)
Pseudomonas aeruginosa
  MIC: 0.2 µg/mL (≈ 0.604 µM)
Escherichia coli
  MIC: ≤ 0.0063 µg/mL

## NC1CCN(c2c(F)cc3c(=O)c(C(=O)O)cn(/C=C\F)c3c2F)C1 (centres undefined)
Streptococcus pneumoniae
  MIC: 0.78 µg/mL (≈ 2.21 µM)
Staphylococcus aureus
  MIC: 0.2 µg/mL (≈ 0.566 µM)
Pseudomonas aeruginosa
  MIC: 0.39 µg/mL (≈ 1.1 µM)
Escherichia coli
  MIC: 0.05 µg/mL (≈ 0.142 µM)

## CN1CCN(c2c(F)cc3c(=O)c(C(=O)O)cn(/C=C\F)c3c2F)CC1
Streptococcus pneumoniae
  MIC: 3.13 µg/mL (≈ 8.52 µM)
Staphylococcus aureus
  MIC: 0.39 µg/mL (≈ 1.06 µM)
DNA gyrase
  IC50: 197 µM
Pseudomonas aeruginosa
  MIC: 1.56 µg/mL (≈ 4.25 µM)
Escherichia coli
  MIC: 0.025 µg/mL (≈ 0.0681 µM)

## CN1CCN(c2cc3c(cc2F)c(=O)c(C(=O)O)cn3/C=C\F)CC1
Streptococcus pneumoniae
  MIC: 3.13 µg/mL (≈ 8.96 µM)
Staphylococcus aureus
  MIC: 0.2 µg/mL (≈ 0.573 µM)
Pseudomonas aeruginosa
  MIC: 1.56 µg/mL (≈ 4.47 µM)
Escherichia coli
  MIC: 0.025 µg/mL (≈ 0.0716 µM)

## COc1c(N2CCC(N)C2)c(F)cc2c(=O)c(C(=O)O)cn(/C=C/F)c12 (centres undefined)
Streptococcus pneumoniae
  MIC: 12.5 µg/mL (≈ 34.2 µM)
Staphylococcus aureus
  MIC: 6.25 µg/mL (≈ 17.1 µM)
Pseudomonas aeruginosa
  MIC: 6.25 µg/mL (≈ 17.1 µM)
Escherichia coli
  MIC: 0.1 µg/mL (≈ 0.274 µM)

## NC1CCN(c2cc3c(cc2F)c(=O)c(C(=O)O)cn3/C=C\F)C1 (centres undefined)
Streptococcus pneumoniae
  MIC: 3.13 µg/mL (≈ 9.33 µM)
Staphylococcus aureus
  MIC: 0.39 µg/mL (≈ 1.16 µM)
Pseudomonas aeruginosa
  MIC: 0.78 µg/mL (≈ 2.33 µM)
Escherichia coli
  MIC: 0.05 µg/mL (≈ 0.149 µM)

## CN1CCN(c2c(F)cc3c(=O)c(C(=O)O)cn(/C=C/F)c3c2F)CC1
Streptococcus pneumoniae
  MIC: > 50 µg/mL
Staphylococcus aureus
  MIC: 12.5 µg/mL (≈ 34 µM)
DNA gyrase
  IC50: 1810 µM
Pseudomonas aeruginosa
  MIC: 12.5 µg/mL (≈ 34 µM)
Escherichia coli
  MIC: 0.39 µg/mL (≈ 1.06 µM)

## NC1CCN(c2c(F)cc3c(=O)c(C(=O)O)cn(/C=C/F)c3c2F)C1 (centres undefined)
Streptococcus pneumoniae
  MIC: 12.5 µg/mL (≈ 35.4 µM)
Staphylococcus aureus
  MIC: 3.13 µg/mL (≈ 8.86 µM)
Pseudomonas aeruginosa
  MIC: 1.56 µg/mL (≈ 4.42 µM)
Escherichia coli
  MIC: 0.2 µg/mL (≈ 0.566 µM)

## COc1c(N2CCN(C)CC2)c(F)cc2c(=O)c(C(=O)O)cn(/C=C/F)c12
Streptococcus pneumoniae
  MIC: 50 µg/mL (≈ 132 µM)
Staphylococcus aureus
  MIC: 6.25 µg/mL (≈ 16.5 µM)
Pseudomonas aeruginosa
  MIC: 25 µg/mL (≈ 65.9 µM)
Escherichia coli
  MIC: 0.2 µg/mL (≈ 0.527 µM)

## COc1c(N2CCN(C)CC2)c(F)cc2c(=O)c(C(=O)O)cn(/C=C\F)c12
Streptococcus pneumoniae
  MIC: 3.13 µg/mL (≈ 8.25 µM)
Staphylococcus aureus
  MIC: 0.39 µg/mL (≈ 1.03 µM)
Pseudomonas aeruginosa
  MIC: 3.13 µg/mL (≈ 8.25 µM)
Escherichia coli
  MIC: 0.025 µg/mL (≈ 0.0659 µM)

## CN1CCN(c2cc3c(cc2F)c(=O)c(C(=O)O)cn3/C=C/F)CC1
Streptococcus pneumoniae
  MIC: 100 µg/mL (≈ 286 µM)
Staphylococcus aureus
  MIC: 3.13 µg/mL (≈ 8.96 µM)
Pseudomonas aeruginosa
  MIC: 6.25 µg/mL (≈ 17.9 µM)
Escherichia coli
  MIC: 0.2 µg/mL (≈ 0.573 µM)
